# Measured values: PubChem BioAssay AID2060905 (Molecular Pharmacology Branch, DTP, NCI, 2025)
# System: 282377-053-R-J1-PDC complex spheroid viability
# Test: Anticancer human tumor 282377-053-R-J1-PDC patient-derived colon adenocarcinoma cell line growth inhibition [RAS]
# Settings: for IC50: curve of first compound; for viability, T/C: stronger effect = lower value
# In short: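 Agents were tested in combination matrices in half-log decrements from a top concentration at or near clinical Cmax (10 microM if undetermined). Targets were multi-cell spheroids of tumour lines plus HUVEC and MSC stromal cells.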
# [1] = second compound 0.000949 µM, first compound 0.0316 µM
# [2] = second compound 0.000949 µM, first compound 0.1 µM
# [3] = second compound 0.000949 µM, first compound 0.316 µM
# [4] = second compound 0.000949 µM, first compound 1 µM
# [5] = second compound 0.003 µM, first compound 0.0316 µM
# [6] = second compound 0.003 µM, first compound 0.1 µM
# [7] = second compound 0.003 µM, first compound 0.316 µM
# [8] = second compound 0.003 µM, first compound 1 µM
# [9] = second compound 0.00949 µM, first compound 0.0316 µM
# [10] = second compound 0.00949 µM, first compound 0.1 µM
# [11] = second compound 0.00949 µM, first compound 0.316 µM
# [12] = second compound 0.00949 µM, first compound 1 µM
# [13] = second compound 0.03 µM, first compound 0.0316 µM
# [14] = second compound 0.03 µM, first compound 0.1 µM
# [15] = second compound 0.03 µM, first compound 0.316 µM
# [16] = second compound 0.03 µM, first compound 1 µM
# [17] = second compound 0.0949 µM, first compound 0.0316 µM
# [18] = second compound 0.0949 µM, first compound 0.1 µM
# [19] = second compound 0.0949 µM, first compound 0.316 µM
# [20] = second compound 0.0949 µM, first compound 1 µM
# [21] = second compound 0.3 µM, first compound 0.0316 µM
# [22] = second compound 0.3 µM, first compound 0.1 µM
# [23] = second compound 0.3 µM, first compound 0.316 µM
# [24] = second compound 0.3 µM, first compound 1 µM
# [25] = second compound 0.000949 µM, first compound 3.16 µM
# [26] = second compound 0.000949 µM, first compound 10 µM
# [27] = second compound 0.003 µM, first compound 3.16 µM
# [28] = second compound 0.003 µM, first compound 10 µM
# [29] = second compound 0.00949 µM, first compound 3.16 µM
# [30] = second compound 0.00949 µM, first compound 10 µM
# [31] = second compound 0.03 µM, first compound 3.16 µM
# [32] = second compound 0.03 µM, first compound 10 µM
# [33] = second compound 0.0949 µM, first compound 3.16 µM
# [34] = second compound 0.0949 µM, first compound 10 µM
# [35] = second compound 0.3 µM, first compound 3.16 µM
# [36] = second compound 0.3 µM, first compound 10 µM
# 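Further: spheroids exposed to agents for seven days before readout.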
# 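Wherever viability, T/C is given: luminescence viability as percent of DMSO vehicle control wells.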
smiles,measurement,setting,value
CCN1CCN(Cc2ccc(Nc3ncc(F)c(-c4cc(F)c5nc(C)n(C(C)C)c5c4)n3)nc2)CC1 + CCn1c(-c2cccnc2C(C)OC)c2c3cc(ccc31)N1CCOC(CC(NC(=O)C(C(C)C)N(C)C(=O)C3(F)CCN(C(=O)C#CC(C)(C)N(C)C)CC3)C(=O)N3CCCC(N3)C(=O)OCC(C)(C)C2)C1,IC50,second compound 0.000949 µM,> 1 µM
same,IC50,second compound 0.003 µM,> 1 µM
same,IC50,second compound 0.00949 µM,> 1 µM
same,IC50,second compound 0.03 µM,> 1 µM
same,IC50,second compound 0.0949 µM,> 1 µM
same,IC50,second compound 0.3 µM,> 1 µM
same,"viability, T/C","second compound 0.000949 µM, first compound 0.00316 µM",117%
same,"viability, T/C","second compound 0.000949 µM, first compound 0.01 µM",100%
same,"viability, T/C",[1],104%
same,"viability, T/C",[2],97.3%
same,"viability, T/C",[3],137%
same,"viability, T/C",[4],229%
same,"viability, T/C","second compound 0.003 µM, first compound 0.00316 µM",137%
same,"viability, T/C","second compound 0.003 µM, first compound 0.01 µM",113%
same,"viability, T/C",[5],94.6%
same,"viability, T/C",[6],99%
same,"viability, T/C",[7],144%
same,"viability, T/C",[8],204%
same,"viability, T/C","second compound 0.00949 µM, first compound 0.00316 µM",111%
same,"viability, T/C","second compound 0.00949 µM, first compound 0.01 µM",106%
same,"viability, T/C",[9],122%
same,"viability, T/C",[10],90.4%
same,"viability, T/C",[11],156%
same,"viability, T/C",[12],208%
same,"viability, T/C","second compound 0.03 µM, first compound 0.00316 µM",104%
same,"viability, T/C","second compound 0.03 µM, first compound 0.01 µM",99.5%
same,"viability, T/C",[13],113%
same,"viability, T/C",[14],110%
same,"viability, T/C",[15],134%
same,"viability, T/C",[16],238%
same,"viability, T/C","second compound 0.0949 µM, first compound 0.00316 µM",102%
same,"viability, T/C","second compound 0.0949 µM, first compound 0.01 µM",109%
same,"viability, T/C",[17],120%
same,"viability, T/C",[18],116%
same,"viability, T/C",[19],125%
same,"viability, T/C",[20],250%
same,"viability, T/C","second compound 0.3 µM, first compound 0.00316 µM",93%
same,"viability, T/C","second compound 0.3 µM, first compound 0.01 µM",106%
same,"viability, T/C",[21],87.2%
same,"viability, T/C",[22],124%
same,"viability, T/C",[23],160%
same,"viability, T/C",[24],221%
C[C@@H](NC(=O)c1ncnc(N)c1Cl)c1ncc(C(=O)Nc2cc(C(F)(F)F)c(Cl)cn2)s1 + CCn1c(-c2cccnc2C(C)OC)c2c3cc(ccc31)N1CCOC(CC(NC(=O)C(C(C)C)N(C)C(=O)C3(F)CCN(C(=O)C#CC(C)(C)N(C)C)CC3)C(=O)N3CCCC(N3)C(=O)OCC(C)(C)C2)C1,IC50,second compound 0.000949 µM,> 10 µM
same,IC50,second compound 0.003 µM,> 10 µM
same,IC50,second compound 0.00949 µM,> 10 µM
same,IC50,second compound 0.03 µM,> 10 µM
same,IC50,second compound 0.0949 µM,> 10 µM
same,IC50,second compound 0.3 µM,> 10 µM
same,"viability, T/C",[1],111%
same,"viability, T/C",[2],118%
same,"viability, T/C",[3],119%
same,"viability, T/C",[4],90.6%
same,"viability, T/C",[25],80.8%
same,"viability, T/C",[26],64.5%
same,"viability, T/C",[5],112%
same,"viability, T/C",[6],92.7%
same,"viability, T/C",[7],99.8%
same,"viability, T/C",[8],82.1%
same,"viability, T/C",[27],63.6%
same,"viability, T/C",[28],57.3%
same,"viability, T/C",[9],93.7%
same,"viability, T/C",[10],89%
same,"viability, T/C",[11],78.5%
same,"viability, T/C",[12],109%
same,"viability, T/C",[29],70.1%
same,"viability, T/C",[30],58.9%
same,"viability, T/C",[13],92.8%
same,"viability, T/C",[14],117%
same,"viability, T/C",[15],91%
same,"viability, T/C",[16],84.3%
same,"viability, T/C",[31],75.8%
same,"viability, T/C",[32],81.1%
same,"viability, T/C",[17],83.2%
same,"viability, T/C",[18],93.6%
same,"viability, T/C",[19],76.5%
same,"viability, T/C",[20],73.1%
same,"viability, T/C",[33],71.8%
same,"viability, T/C",[34],71.3%
same,"viability, T/C",[21],80.7%
same,"viability, T/C",[22],99.1%
same,"viability, T/C",[23],96.8%
same,"viability, T/C",[24],86.2%
same,"viability, T/C",[35],81.4%
same,"viability, T/C",[36],66.9%
Cc1nc(N2CCC3(CC2)COC(C)C3N)c(CO)nc1Sc1ccnc(N)c1Cl (stereo unspecified) + CCn1c(-c2cccnc2C(C)OC)c2c3cc(ccc31)N1CCOC(CC(NC(=O)C(C(C)C)N(C)C(=O)C3(F)CCN(C(=O)C#CC(C)(C)N(C)C)CC3)C(=O)N3CCCC(N3)C(=O)OCC(C)(C)C2)C1,IC50,second compound 0.000949 µM,> 10 µM
same,IC50,second compound 0.003 µM,> 10 µM
same,IC50,second compound 0.00949 µM,> 10 µM
same,IC50,second compound 0.03 µM,> 10 µM
same,IC50,second compound 0.0949 µM,> 10 µM
same,IC50,second compound 0.3 µM,> 10 µM
same,"viability, T/C",[1],81%
same,"viability, T/C",[2],93.8%
same,"viability, T/C",[3],89.8%
same,"viability, T/C",[4],94.2%
same,"viability, T/C",[25],81.8%
same,"viability, T/C",[26],80.6%
same,"viability, T/C",[5],85.8%
same,"viability, T/C",[6],115%
same,"viability, T/C",[7],101%
same,"viability, T/C",[8],85.8%
same,"viability, T/C",[27],82.1%
same,"viability, T/C",[28],75.1%
same,"viability, T/C",[9],111%
same,"viability, T/C",[10],85.1%
same,"viability, T/C",[11],89.2%
same,"viability, T/C",[12],99.7%
same,"viability, T/C",[29],99.5%
same,"viability, T/C",[30],110%
same,"viability, T/C",[13],101%
same,"viability, T/C",[14],83.8%
same,"viability, T/C",[15],102%
same,"viability, T/C",[16],87%
same,"viability, T/C",[31],84.4%
same,"viability, T/C",[32],83.4%
same,"viability, T/C",[17],88.9%
same,"viability, T/C",[18],96.2%
same,"viability, T/C",[19],108%
same,"viability, T/C",[20],103%
same,"viability, T/C",[33],95.5%
same,"viability, T/C",[34],105%
same,"viability, T/C",[21],87.6%
same,"viability, T/C",[22],103%
same,"viability, T/C",[23],93%
same,"viability, T/C",[24],100%
same,"viability, T/C",[35],90%
same,"viability, T/C",[36],119%
